Data from article PMC11570809, “Novel N-phenyl-2-(aniline) benzamide hydrochloride salt development for colon cancer therapy” (Frontiers in Pharmacology, 2024).
Where a name gives a salt, the structure may show the parent alone. Read-outs that look alike come from different tables or passages of the source.

Experiments:
[1] = target: T1, Topo I (Bos taurus, UniProt F1MN93); test: Topo I-mediated DNA relaxation assay; type: biochemical; settings: relaxation of supercoiled pBR322
T1 construct: purchased Takara Biotechnology, Dalian, China
T1 sequence (F1MN93 1-767): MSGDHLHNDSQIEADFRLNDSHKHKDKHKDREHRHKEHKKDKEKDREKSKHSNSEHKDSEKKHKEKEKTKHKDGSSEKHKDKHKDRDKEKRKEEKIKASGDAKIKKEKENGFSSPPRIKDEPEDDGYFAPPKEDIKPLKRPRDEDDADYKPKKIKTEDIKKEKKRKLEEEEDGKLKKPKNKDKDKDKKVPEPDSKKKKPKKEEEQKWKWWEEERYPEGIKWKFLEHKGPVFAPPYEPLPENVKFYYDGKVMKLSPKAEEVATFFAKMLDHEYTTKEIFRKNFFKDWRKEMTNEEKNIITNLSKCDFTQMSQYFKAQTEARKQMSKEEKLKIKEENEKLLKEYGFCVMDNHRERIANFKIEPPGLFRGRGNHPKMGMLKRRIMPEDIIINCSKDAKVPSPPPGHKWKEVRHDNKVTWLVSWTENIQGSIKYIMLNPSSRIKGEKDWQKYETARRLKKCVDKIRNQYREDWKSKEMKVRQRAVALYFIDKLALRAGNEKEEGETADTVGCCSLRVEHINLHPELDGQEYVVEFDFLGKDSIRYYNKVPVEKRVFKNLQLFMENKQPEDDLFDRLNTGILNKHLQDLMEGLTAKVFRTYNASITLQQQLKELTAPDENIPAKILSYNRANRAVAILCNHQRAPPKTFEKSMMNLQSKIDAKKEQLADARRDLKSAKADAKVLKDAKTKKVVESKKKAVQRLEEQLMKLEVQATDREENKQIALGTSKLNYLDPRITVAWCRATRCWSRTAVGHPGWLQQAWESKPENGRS
Description: In brief, 2 μL Topo I Assay Buffer, 2 μL 0.1% BSA solution, 1 μL 1 U/μL Topo I solution, 0.2 μL test compound solution, and 0.5 μL DNA solution (0.25 μg) were added orderly with the corresponding volume of ultrapure water to make the above system volume 20 μL (Takara Biotechnology, Dalian, China). The above system was incubated at 37°C, the incubation continued for 45 min, and then 10 μL of a mixture of equal phenol and chloroform organic solvent was added for extraction to terminate the reaction. The aqueous phase was separated by centrifugation, the corresponding volume of 6 × DNA loading buffer was added, and then 0.8% agarose gel and 1 × TAE electrophoresis solution were used for electrophoresis at 110 V for 1 h. After electrophoresis, the gel was placed in a 0.5 μg/mL of ethidium bromide (EB) solution for 30 min, then recorded and photographed at 302 nm wavelength.

[2] = tested on: HuH7; test: MTT anti-proliferation assay, HuH7; type: cell-based, human; settings: 72 h, read-out: IC50 ± SD HuH7
[3] = tested on: RKO; test: MTT anti-proliferation assay, RKO; type: cell-based, human; settings: 72 h, read-out: IC50 ± SD RKO
Description: The anti-proliferation activities of synthesized compounds to colon cancer cell lines were measured by the MTT (3-[4,5-dimethyl-2-thiazolyl]-2,5-diphenyl-2H-tet razolium bromide) assay. First, the cell suspension was prepared by trypsin and the corresponding medium, cells were diluted to 5 × 10^5 cells/mL, and 96-well plates were added 200 μL per well. The plates were maintained at 37°C in a humidified atmosphere containing 5% CO2 overnight. Then compounds at gradient concentrations were added to cells in the logarithmic phase to make the final concentration at 0.5, 1, 2, 4, 8, 16, and 32 μM. The cells were treated with tested compounds for 72 h, and the growth curve assay was tested in 24 h. When the time was up, 20 μL of MTT solution (5 mg/mL in PBS) was added into each well to incubate for 4 h at 37°C. Then the supernatant liquid was removed, 150 μL DMSO was added into every well to dissolve formazan crystals and read the absorbance at 570 nm by Spark microplate spectrophotometer (Tecan, Swiss). The IC50 values were analyzed by IBM SPASS Statistics 25.0 software. The data are all derived from three parallel experiments (n = 3) and expressed as mean ± SD.

With Cc1c(Cl)cccc1Nc1ccccc1C(=O)Nc1ccc(N2CCN(C)CC2)cc1 [Compound N53, 2-((3-chloro-2-methylphenyl)amino)-N-(4-(4-methylp-iperazin-1-yl)phenyl)benzamide] the “Inhibition rate (%) of Topo I (100 μM)” value [1] was 11.7%, the IC50 [2] was 3.67 ± 0.38 µM and the IC50 [3] was 6.29 ± 0.54 µM.
With Cc1c(Cl)cccc1Nc1ccccc1C(=O)Nc1ccc(N2CCN(C)CC2)cc1 [N53·HCl, 4-(4-(2-((3-chloro-2-methylphenyl)amino)ben-zamido)phenyl)-1-methylpiperazin-1-ium] the “Inhibition rate (%) of Topo I (100 μM)” value [1] was 55.1%, the IC50 [2] was 11.7 ± 0.75 µM and the IC50 ([3]; Homo sapiens, RKO) was 7.99 ± 0.85 µM.
